For experiment [1], the target named is T1, plasmin (Homo sapiens, UniProt P00747).
T1 construct: purchased Sigma-Aldrich (supplement); R&D Systems; host or cells: human plasma
The experiment in a line: Activity-based profiling of plasmin (SDS-PAGE, streptavidin-HRP western blot). To be noted: 50 μM, 30 min, 37°C. The format is binding. On the procedure:
(§1) Samples of recombinant protease (trypsin, plasmin, thrombin, chymotrypsin, or HNE, as indicated in the relevant figure legends) were treated with each of the newly synthesized compounds at a concentration of 50 μM, for 30 min, at 37°C. A control sample (no ABP) was prepared by treating the recombinant protease with solvent vehicle (DMF) only, used to prepare the stock solution of each ABP. Samples were also pre-treated (±90°C for 30 min) before being incubated with each putative ABP. With trypsin and thrombin, further samples were prepared where Z-Arg^P-(OPh)2 or NAP559, respectively, was added 30 min prior to the addition of the ABP under examination. All treated samples were then denatured with SDS containing reducing treatment buffer (10 min at 95°C), followed by resolution by SDS-PAGE and subjected to Western blotting. Resolved proteins were then transferred onto the nitrocellulose membrane and labeled with streptavidin-HRP. The ABP–protease complex was then visualized following treatment with Luminata Forte HRP substrate.
FIGURE 8 Activity Based Profiling of Trypsin-like serine proteases. (A) trypsin was treated (±) with NAP830, for 30 min, at 37°C (± pretreatment with Z-Arg^P-(OPh)2). (B) thrombin (1 […]) was pre-treated with various concentrations of NAP559 (30 min, at 37°C) followed by treatment (±) with NAP858 for 30 min, at 37°C. (C) Plasmin was treated in turn with QUBTL1, NAP962 and NAP830, (± pre-heat inactivation at 95°C, for 10 min) for 30 min, at 37°C. […]
(§2) Following transfer, the extra protein binding sites on the membrane were blocked by addition of 3% (w/v) BSA in TBST (20 mM Tris, 137 mM NaCl, 1% (v/v) Tween 20, pH 7.6) and agitated gently at room temperature for 30 minutes. The biotin-labelled proteases were then detected by addition of Streptavidin-HRP (Vector Laboratories) in 3% (w/v) BSA in TBST at a concentration of 1:20000, for 1 hour at room temperature. […]

In experiment [2] the target is T1, plasmin. Also noted: method as in Martin and Walker (2017). The following applies: mean ± SD (n=2), ref Martin and Walker (2017); cited from earlier work.
Experiment [3] addresses T2, trypsin (Sus scrofa, UniProt P00761).
T2 construct: purchased Sigma-Aldrich; host or cells: porcine pancreas
The experiment in a line: Activity-based profiling of trypsin (SDS-PAGE, streptavidin-HRP western blot). To be noted: added 30 min prior to NAP830. The format is binding, porcine. As to the method: as §1, with “The ABP–protease complex was then visualized following treatment with Luminata Forte HRP substrate.” left out
as §2

Experiment [4] addresses T3, neutrophil elastase (NE) (Homo sapiens, UniProt P08246).
T3 construct: purchased Calbiochem
T3 sequence (P08246 30-267): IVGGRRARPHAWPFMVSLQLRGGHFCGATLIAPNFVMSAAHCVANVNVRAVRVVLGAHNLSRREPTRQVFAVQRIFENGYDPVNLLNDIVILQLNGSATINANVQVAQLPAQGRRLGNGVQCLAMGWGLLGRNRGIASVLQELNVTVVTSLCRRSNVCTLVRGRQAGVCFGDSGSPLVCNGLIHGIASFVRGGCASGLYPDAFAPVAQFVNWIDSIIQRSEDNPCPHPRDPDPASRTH
Also noted: method as in Gilmore et al. (2009). The following applies: ref Gilmore et al. (2009); cited from earlier work.

T1 sequence (P00747 581-810 limits assumed): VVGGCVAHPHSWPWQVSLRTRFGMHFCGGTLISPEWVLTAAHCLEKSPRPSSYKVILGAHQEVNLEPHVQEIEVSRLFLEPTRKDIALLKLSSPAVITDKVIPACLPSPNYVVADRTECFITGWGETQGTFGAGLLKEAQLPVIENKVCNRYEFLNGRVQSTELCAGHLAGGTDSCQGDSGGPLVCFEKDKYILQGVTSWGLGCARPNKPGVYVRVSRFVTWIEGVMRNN
T1 sequence (P00747 97-580 partner limits assumed): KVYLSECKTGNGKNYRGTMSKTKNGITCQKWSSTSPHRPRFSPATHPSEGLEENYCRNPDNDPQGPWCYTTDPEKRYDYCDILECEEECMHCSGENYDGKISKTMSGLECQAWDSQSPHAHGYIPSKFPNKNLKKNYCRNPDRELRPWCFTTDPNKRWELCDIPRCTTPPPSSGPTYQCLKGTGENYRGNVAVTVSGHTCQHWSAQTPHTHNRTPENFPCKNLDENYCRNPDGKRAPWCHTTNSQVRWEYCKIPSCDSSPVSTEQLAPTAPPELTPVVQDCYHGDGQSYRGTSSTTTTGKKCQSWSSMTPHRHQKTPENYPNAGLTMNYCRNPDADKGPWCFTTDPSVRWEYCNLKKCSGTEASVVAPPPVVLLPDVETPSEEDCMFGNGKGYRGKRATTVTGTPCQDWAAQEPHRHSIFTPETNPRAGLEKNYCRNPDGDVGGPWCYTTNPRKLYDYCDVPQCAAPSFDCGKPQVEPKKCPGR
T2 sequence (P00761 9-231): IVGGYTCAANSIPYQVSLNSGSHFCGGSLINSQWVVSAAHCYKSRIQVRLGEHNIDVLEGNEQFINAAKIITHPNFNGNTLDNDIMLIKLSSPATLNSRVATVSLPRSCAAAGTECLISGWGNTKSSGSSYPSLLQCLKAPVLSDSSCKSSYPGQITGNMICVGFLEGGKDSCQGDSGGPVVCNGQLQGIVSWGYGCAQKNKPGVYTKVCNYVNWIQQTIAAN

For `N=C(N)NCCCC(NC(=O)CCC(=O)NCCCOCCOCCOCCCNC(=O)CCCCC1SCC2NC(=O)NC21)P(=O)(Oc1ccccc1)Oc1ccccc1` (stereo not drawn) [QUBTL1, biotin-PEG-succinyl-arginine diphenyl phosphonate], in experiment [1], the “labelling of plasmin by ABP (western blot)” value is given as “failed to detect any plasmin band”. Moreover, in experiment [2], the Ki was 89 nM, the “k 3” value is listed as 0.3 (± 0.05) min^−1 and the “k 3 / K i” value is 3.1 (± 0.2) × 10^6 M^−1 min^−1.
As to `NC(N)=NCCCC(NC(=O)OCc1ccccc1)P(=O)(Oc1ccccc1)Oc1ccccc1` (stereo not drawn) [Z-Arg^P-(OPh)2, reference compound], in experiment [3], the “effect of pre-treatment of trypsin on signal detected by NAP830” value is on record as “quenching/diminution in the signal detected by NAP830”.
As to “biotin-PEG-succinyl-Val^P-(OPh)2 [QUBEL1]”, in experiment [4], the “k 3 / K i” value was 12900 M⁻¹ min⁻¹.

The values are drawn from PMC9555310, “Novel inhibitors and activity-based probes targeting serine proteases” (Frontiers in Chemistry, 2022).
